In US20240182407A1, “QUINOLINE COMPOUND SALT OR CRYSTAL FORM, PREPARATION METHOD THEREFOR, AND APPLICATION THEREOF” (Nanjing Zenshine Pharmaceuticals Co., Ltd., priority 2021, published 2024):
Values after ≈ are worked out from the molar mass of the structure shown.

What was measured:
[1] = Solubility in simulated gastrointestinal fluids (SGF, FeSSIF, FaSSIF) at 37° C.; format: physicochemical; conditions: for Solubility: 37° C.; for Solubility / pH of filtrate: listed as Sample 5; for solubility at 30 min / solubility at 2 h / solubility at 24 h: 37 °C, thermodynamic from solid
Method: The solubilities of Compound A and p-toluenesulfonate (Sample 5, crystal form I) in simulated gastrointestinal fluids (SGF, FeSSIF and FaSSIF) at 37° C. were tested.
About 7.5 mg of Compound A and p-toluenesulfonate were separately added to 1.5 mL of three biological vehicles to prepare suspensions. All the suspensions were placed in a shaker at 37° C. and shaken at 200 rpm for 24 h, and about 0.5 mL was sampled separately at 0.5 h, 2 h and 24 h for filtration. The obtained filtrates were subjected to HPLC analysis and pH measurement, and the filter cakes were respectively measured by XRPD.

PI3Kα (p110α/p85α) = biological target: T1, PI3Kα (p110α/p85α) (Homo sapiens, UniProt P42336); experiment: ADP-Glo kinase inhibition, PI3Kα; conditions: read-out: IC50 PI3Kα Biochemical
T1 construct: purchased Invitrogen PV4788
Method: In Example 7, the inhibitory effects of Sample 6 prepared in Example 6 above on kinases PI3Kα, PI3Kβ, PI3Kγ and PI3Kδ were tested.
The kinases used in the experiment were respectively purchased from: • PI3Kα (p110α/p85α), purchased from Invitrogen, under Cat. No. PV4788; • PI3Kβ (p110β), purchased from eurofins, under Cat. No. 14-603M; • PI3Kδ (p110δ/p85a), purchased from Invitrogen, under Cat. No. PV6452; and • PI3Kγ (p110γ), purchased from Invitrogen, under Cat. No. PR8641C. • Firstly, a 1× kinase buffer solution was prepared, which comprised: • 50 mM HEPES, pH 7.5 • 3 mM MgCl2 • 1 mM EGTA • 100 mM NaCl • 0.03% CHAPS • 2 mM DTT
On kinases PI3Kα, PI3Kβ and PI3Kγ, the final detection concentration of the compound was 10 μM. 100× concentration was prepared, i.e., 1000 μM. 90 μL of 100% DMSO was added to the second well in row A on a 96-well plate, 10 μL of a 10 mM compound solution was then added, and 3-fold serial dilution was made to obtain a total of 10 concentrations.
50 μL of 100% DMSO was transferred to two empty wells as Max well and Min well, respectively.
50 nL of the compound was transferred into a 384-well plate using ECHO550.
Preparation of 2× kinase solution: the kinase was added to a 1× kinase buffer to prepare a 2× enzyme solution. […]
Finally, the chemiluminescence values were read from Envision 2104 Multi-label Reader and subjected to curve fitting, and IC50 was calculated.

PI3Kβ = biological target: T2, PI3Kβ (Homo sapiens, UniProt P42338); experiment: Akt phosphorylation in PC-3 cells stimulated by LPA (AlphaLISA); conditions: phosphorylation of Akt, read-out: IC50 PI3Kβ Cell-based
T2 construct: host or cells: PC-3 cells
Method: In addition, taking Sample 6 as an example, the inhibitory effects thereof on PI3Kα, PI3Kβ, PI3Kγ and PI3Kδ in corresponding cells were determined. The activity of PI3Kα was detected by the phosphorylation level of Akt in C2Cl2 cells stimulated by IGF-1, the activity of PI3Kβ was detected by the phosphorylation level of Akt in PC-3 cells stimulated by LPA, the activity of PI3Kγ was detected by the phosphorylation level of Akt in Raw264.7 cells stimulated by c5α, and the activity of PI3Kδ was detected by the phosphorylation level of Akt in Raji cells stimulated by IgM. The phosphorylation level of Akt in cells was determined by means of AlphaLISA technique from PerkinElemer.
The C2C12 cells, PC-3 cells, Raw264.7 cells and Raji cells were all purchased from ATCC.

T2 sequence (P42338 whole entry): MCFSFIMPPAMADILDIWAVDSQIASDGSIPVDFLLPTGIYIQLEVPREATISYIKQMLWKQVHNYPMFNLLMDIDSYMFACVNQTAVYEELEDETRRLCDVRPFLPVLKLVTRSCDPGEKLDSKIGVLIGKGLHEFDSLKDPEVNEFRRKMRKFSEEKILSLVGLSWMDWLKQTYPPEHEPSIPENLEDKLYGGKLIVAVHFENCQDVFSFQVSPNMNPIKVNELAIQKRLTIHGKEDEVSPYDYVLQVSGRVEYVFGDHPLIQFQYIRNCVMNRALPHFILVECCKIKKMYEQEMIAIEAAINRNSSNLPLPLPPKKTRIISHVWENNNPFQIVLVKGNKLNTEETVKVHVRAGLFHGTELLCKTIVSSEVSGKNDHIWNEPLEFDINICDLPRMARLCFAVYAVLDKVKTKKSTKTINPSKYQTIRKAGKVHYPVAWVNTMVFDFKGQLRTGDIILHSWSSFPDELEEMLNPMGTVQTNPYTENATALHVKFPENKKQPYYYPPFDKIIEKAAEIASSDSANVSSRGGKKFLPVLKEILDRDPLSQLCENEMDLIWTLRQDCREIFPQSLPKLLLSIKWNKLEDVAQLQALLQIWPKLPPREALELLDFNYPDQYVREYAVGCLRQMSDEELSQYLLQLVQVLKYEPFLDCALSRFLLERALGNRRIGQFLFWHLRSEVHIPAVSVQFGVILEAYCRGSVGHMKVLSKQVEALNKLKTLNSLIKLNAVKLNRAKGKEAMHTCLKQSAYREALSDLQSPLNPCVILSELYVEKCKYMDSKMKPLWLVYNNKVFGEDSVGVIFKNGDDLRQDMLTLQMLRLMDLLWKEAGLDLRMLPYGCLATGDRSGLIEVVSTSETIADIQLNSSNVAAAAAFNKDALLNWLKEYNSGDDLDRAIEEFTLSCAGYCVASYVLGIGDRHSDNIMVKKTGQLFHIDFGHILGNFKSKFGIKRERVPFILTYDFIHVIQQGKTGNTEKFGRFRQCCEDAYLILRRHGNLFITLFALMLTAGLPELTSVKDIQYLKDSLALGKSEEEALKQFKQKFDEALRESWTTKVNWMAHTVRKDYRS
T2 sequence (P27986 whole entry partner): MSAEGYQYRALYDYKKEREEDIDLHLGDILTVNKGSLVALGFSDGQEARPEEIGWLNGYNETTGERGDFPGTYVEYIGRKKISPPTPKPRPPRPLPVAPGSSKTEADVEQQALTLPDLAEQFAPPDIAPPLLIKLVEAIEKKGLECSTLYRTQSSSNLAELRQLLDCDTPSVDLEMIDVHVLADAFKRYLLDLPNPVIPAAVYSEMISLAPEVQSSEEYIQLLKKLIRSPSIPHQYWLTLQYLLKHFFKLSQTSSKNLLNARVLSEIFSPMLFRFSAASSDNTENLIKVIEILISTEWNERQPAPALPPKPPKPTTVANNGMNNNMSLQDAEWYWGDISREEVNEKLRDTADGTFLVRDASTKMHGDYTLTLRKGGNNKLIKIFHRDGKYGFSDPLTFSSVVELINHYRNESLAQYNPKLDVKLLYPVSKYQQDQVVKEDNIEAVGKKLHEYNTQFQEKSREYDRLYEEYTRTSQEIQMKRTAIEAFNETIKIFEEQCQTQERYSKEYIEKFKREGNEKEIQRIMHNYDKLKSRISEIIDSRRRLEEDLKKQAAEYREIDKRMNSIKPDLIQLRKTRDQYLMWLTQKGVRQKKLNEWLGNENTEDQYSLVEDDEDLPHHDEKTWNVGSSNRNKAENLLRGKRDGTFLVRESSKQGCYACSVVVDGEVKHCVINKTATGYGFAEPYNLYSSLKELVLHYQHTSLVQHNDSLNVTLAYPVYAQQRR
T1 sequence (P42336 whole entry): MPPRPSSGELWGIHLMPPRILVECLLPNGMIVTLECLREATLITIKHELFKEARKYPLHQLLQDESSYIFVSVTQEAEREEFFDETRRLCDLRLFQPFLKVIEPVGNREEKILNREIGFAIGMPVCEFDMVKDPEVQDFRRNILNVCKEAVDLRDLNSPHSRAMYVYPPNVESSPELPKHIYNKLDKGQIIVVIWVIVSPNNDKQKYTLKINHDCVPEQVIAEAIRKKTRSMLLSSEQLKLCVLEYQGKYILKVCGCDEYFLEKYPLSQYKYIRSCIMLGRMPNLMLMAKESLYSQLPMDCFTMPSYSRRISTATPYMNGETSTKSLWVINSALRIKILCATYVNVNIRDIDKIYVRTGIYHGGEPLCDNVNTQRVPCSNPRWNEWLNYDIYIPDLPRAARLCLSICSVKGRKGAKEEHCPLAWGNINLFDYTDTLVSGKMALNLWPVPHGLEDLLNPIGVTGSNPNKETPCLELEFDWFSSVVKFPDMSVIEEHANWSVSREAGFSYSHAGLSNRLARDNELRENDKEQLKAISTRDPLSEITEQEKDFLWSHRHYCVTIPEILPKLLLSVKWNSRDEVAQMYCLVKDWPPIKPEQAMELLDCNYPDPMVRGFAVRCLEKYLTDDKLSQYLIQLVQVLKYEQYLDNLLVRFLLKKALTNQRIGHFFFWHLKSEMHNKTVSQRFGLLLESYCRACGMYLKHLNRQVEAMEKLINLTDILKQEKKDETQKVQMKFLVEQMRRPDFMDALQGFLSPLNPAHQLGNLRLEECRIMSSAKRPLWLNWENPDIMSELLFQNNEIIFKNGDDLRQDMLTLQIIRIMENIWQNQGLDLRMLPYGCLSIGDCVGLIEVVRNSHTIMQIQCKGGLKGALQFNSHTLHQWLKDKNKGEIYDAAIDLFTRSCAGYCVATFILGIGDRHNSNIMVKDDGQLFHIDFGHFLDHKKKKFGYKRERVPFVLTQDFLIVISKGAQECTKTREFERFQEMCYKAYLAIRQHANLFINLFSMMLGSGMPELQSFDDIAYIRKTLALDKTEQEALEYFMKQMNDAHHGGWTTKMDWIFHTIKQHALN
T1 sequence (P27986 whole entry partner): as the sequence (P27986 whole entry partner) above

**Q.** Which Solubility ([1]; FaSSIF (pH 6.52), 30 min) does the source give for `C[C@H](Nc1nc(N)nc(N)c1C#N)c1cc2ccc(F)cc2nc1-c1ccccn1` [p-toluenesulfonate of Compound A] here?
**A.** 0.57 mg/mL (≈ 1.42 mM)

**Q.** What about the Solubility ([1]; FaSSIF (pH 6.52), 2 h) of the same compound?
**A.** 0.56 mg/mL (≈ 1.4 mM)

**Q.** And the Solubility ([1]; FaSSIF (pH 6.52), 24 h)?
**A.** 0.55 mg/mL (≈ 1.37 mM)

**Q.** What about the pH of filtrate ([1]; FaSSIF (pH 6.52), 0.5 h) of the same compound?
**A.** 6.27

**Q.** What about the pH of filtrate ([1]; FaSSIF (pH 6.52), 2 h) of the same compound?
**A.** 6.10

**Q.** And the pH of filtrate ([1]; FaSSIF (pH 6.52), 24 h)?
**A.** 5.38

**Q.** What about the pH of filtrate ([1]; FeSSIF (pH 4.99), 0.5 h) of the same compound?
**A.** 4.81

**Q.** And the pH of filtrate ([1]; FeSSIF (pH 4.99), 2 h)?
**A.** 4.80

**Q.** And the pH of filtrate ([1]; FeSSIF (pH 4.99), 24 h)?
**A.** 4.69

**Q.** What about the solubility at 30 min ([1]; FeSSIF, pH 4.99, fessif, FeSSIF (pH 4.99), 30 min) of the same compound?
**A.** 1310 µg/mL (≈ 3.27 mM)

**Q.** What about the solubility at 2 h ([1]; FeSSIF, pH 4.99, fessif, FeSSIF (pH 4.99), 2 h) of the same compound?
**A.** 2740 µg/mL (≈ 6.84 mM)

**Q.** What about the solubility at 24 h ([1]; FeSSIF, pH 4.99, fessif, FeSSIF (pH 4.99), 24 h) of the same compound?
**A.** 3570 µg/mL (≈ 8.92 mM)

**Q.** And the pH of filtrate ([1]; SGF (pH 1.21), 0.5 h)?
**A.** 1.05

**Q.** What about the pH of filtrate ([1]; SGF (pH 1.21), 2 h) of the same compound?
**A.** 1.10

**Q.** What about the pH of filtrate ([1]; SGF (pH 1.21), 24 h) of the same compound?
**A.** 1.11

**Q.** And the solubility at 30 min ([1]; SGF, pH 1.21, simulated gastric fluid, SGF (pH 1.21), 30 min)?
**A.** > 5440 µg/mL

**Q.** What about the solubility at 2 h ([1]; SGF, pH 1.21, simulated gastric fluid, SGF (pH 1.21), 2 h) of the same compound?
**A.** > 5400 µg/mL

**Q.** What about the solubility at 24 h ([1]; SGF, pH 1.21, simulated gastric fluid, SGF (pH 1.21), 24 h) of the same compound?
**A.** > 5350 µg/mL

**Q.** And the IC50 (PI3Kα (p110α/p85α))?
**A.** 117 nM

**Q.** What about the IC50 (PI3Kβ) of the same compound?
**A.** 126 nM
